Data published in PubChem BioAssay AID1919002 (Molecular Pharmacology Branch, DTP, NCI, 2023).
“And” between values parts separate entries of the source, which are not always exact repeats. Identical values can stand only once.

System: 743489-274-T-PDC complex spheroid growth
Test: Anticancer human tumor 743489-274-T-PDC patient-derived renal cell carcinoma cell line growth inhibition [AhR]
Conditions: for viability, T/C: stronger effect = lower value
In short: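 Agents were dosed in half-log steps down from roughly clinical Cmax, or from 10 microM where Cmax was unknown, alone and with AhR antagonists. Read-out: percent test/control growth of tumor spheroids containing HUVEC and MSC stromal cells.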

[1] = curve of first compound, second compound 0.1 µM
[2] = curve of first compound, second compound 0.316 µM
[3] = curve of first compound, second compound 1 µM
[4] = curve of first compound, second compound 3.16 µM
[5] = curve of first compound, second compound 10 µM
[6] = second compound 0.1 µM, first compound 0.0316 µM
[7] = second compound 0.1 µM, first compound 0.1 µM
[8] = second compound 0.1 µM, first compound 0.316 µM
[9] = second compound 0.1 µM, first compound 1 µM
[10] = second compound 0.1 µM, first compound 3.16 µM
[11] = second compound 0.1 µM, first compound 10 µM
[12] = second compound 0.316 µM, first compound 0.0316 µM
[13] = second compound 0.316 µM, first compound 0.1 µM
[14] = second compound 0.316 µM, first compound 0.316 µM
[15] = second compound 0.316 µM, first compound 1 µM
[16] = second compound 0.316 µM, first compound 3.16 µM
[17] = second compound 0.316 µM, first compound 10 µM
[18] = second compound 1 µM, first compound 0.0316 µM
[19] = second compound 1 µM, first compound 0.1 µM
[20] = second compound 1 µM, first compound 0.316 µM
[21] = second compound 1 µM, first compound 1 µM
[22] = second compound 1 µM, first compound 3.16 µM
[23] = second compound 1 µM, first compound 10 µM
[24] = second compound 3.16 µM, first compound 0.0316 µM
[25] = second compound 3.16 µM, first compound 0.1 µM
[26] = second compound 3.16 µM, first compound 0.316 µM
[27] = second compound 3.16 µM, first compound 1 µM
[28] = second compound 3.16 µM, first compound 3.16 µM
[29] = second compound 3.16 µM, first compound 10 µM
[30] = second compound 10 µM, first compound 0.0316 µM
[31] = second compound 10 µM, first compound 0.1 µM
[32] = second compound 10 µM, first compound 0.316 µM
[33] = second compound 10 µM, first compound 1 µM
[34] = second compound 10 µM, first compound 3.16 µM
[35] = second compound 10 µM, first compound 10 µM
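Note: spheroids exposed to agents for 7 days before readout.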
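Throughout, for viability, T/C: 100% = DMSO vehicle control wells.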

COc1cc(Nc2ncc3c(n2)-c2ccc(Cl)cc2C(c2c(F)cccc2OC)=NC3)ccc1C(=O)O
viability, T/C (compound 0.0316 µM): 106% and 98.6% and 103% | viability, T/C (compound 0.1 µM): 105% and 95.3% and 116% | viability, T/C (compound 0.316 µM): 92% and 95.6% and 98.8% | viability, T/C (compound 1 µM): 91.3% and 90.4% and 99.3% | viability, T/C (compound 3.16 µM): 90.3% and 92.1% and 91.2% | viability, T/C (compound 10 µM): 102% and 87.5% and 94.5% | IC50 (curve of compound): > 10 µM

Cc1ccccc1N=Nc1ccc(NC(=O)c2ccnn2C)c(C)c1
viability, T/C (compound 0.1 µM): 90.5% [middle of 20 runs] | viability, T/C (compound 0.316 µM): 90.9% [middle of 20 runs] | viability, T/C (compound 1 µM): 86.1% [middle of 20 runs] | IC50 (compound alone, run of 08/22/2022): > 10 µM

O=C(c1cc(Cc2n[nH]c(=O)c3ccccc23)ccc1F)N1CCN(C(=O)C2CC2)CC1
viability, T/C (compound 0.0316 µM): 95.7% and 110% and 102% | viability, T/C (compound 0.1 µM): 101% and 105% and 113% | viability, T/C (compound 0.316 µM): 103% (2×) and 97.1% | viability, T/C (compound 1 µM): 92.9% and 102% and 112% | viability, T/C (compound 3.16 µM): 102% and 101% and 109% | viability, T/C (compound 10 µM): 96.3% and 110% and 106% | IC50 (curve of compound): > 10 µM

O=C(C=Cc1cccc(S(=O)(=O)Nc2ccccc2)c1)NO
viability, T/C (compound 0.0316 µM): 101% and 91.6% and 104% | viability, T/C (compound 0.1 µM): 95.5% and 88.6% and 91.7% | viability, T/C (compound 0.316 µM): 93.9% and 90.1% and 87.8% | viability, T/C (compound 1 µM): 84.5% and 64.3% and 93% | viability, T/C (compound 3.16 µM): 83.8% and 59.3% and 84.6% | viability, T/C (compound 10 µM): 59.8% and 39.6% and 51.1% | IC50 (curve of compound): > 10 µM and 4.74 µM

Nc1ncn(C2CC(O)C(CO)S2)c(=O)n1 (configuration not stated)
viability, T/C (compound 0.000949 µM): 110% and 93.5% and 116% | viability, T/C (compound 0.003 µM): 104% and 98.1% and 105% | viability, T/C (compound 0.00949 µM): 96.2% and 94.2% and 111% | viability, T/C (compound 0.03 µM): 102% and 85.6% and 96.6% | viability, T/C (compound 0.0949 µM): 97.2% and 95% and 103% | viability, T/C (compound 0.3 µM): 97.2% and 89.2% and 103% | IC50 (curve of compound): > 0.3 µM

Nc1ccccc1NC(=O)c1ccc(CNC(=O)OCc2cccnc2)cc1 + Cc1cncc(-c2nc(NCCc3c[nH]c4ccccc34)c3ncn(C(C)C)c3n2)c1
IC50 [1]: 4.64 µM | IC50 [2]: 3.12 µM | IC50 [3]: 2.4 µM | IC50 [4]: 6.83 µM | IC50 [5]: 9.62 µM | viability, T/C [6]: 104% | viability, T/C [7]: 92.7% | viability, T/C [8]: 86.5% | viability, T/C [9]: 77.7% | viability, T/C [10]: 54.2% | viability, T/C [11]: 36.6% | viability, T/C [12]: 92.2% | viability, T/C [13]: 93.1% | viability, T/C [14]: 89.4% | viability, T/C [15]: 74% | viability, T/C [16]: 50.1% | viability, T/C [17]: 36.3% | viability, T/C [18]: 88.5% | viability, T/C [19]: 84.1% | viability, T/C [20]: 87.2% | viability, T/C [21]: 73.8% | viability, T/C [22]: 42.5% | viability, T/C [23]: 29.9% | viability, T/C [24]: 95.5% | viability, T/C [25]: 91.5% | viability, T/C [26]: 88.7% | viability, T/C [27]: 78.5% | viability, T/C [28]: 61.3% | viability, T/C [29]: 44.3% | viability, T/C [30]: 102% | viability, T/C [31]: 102% | viability, T/C [32]: 106% | viability, T/C [33]: 91.3% | viability, T/C [34]: 84.6% | viability, T/C [35]: 48.2%

CC(C)CC(NC(=O)C(Cc1ccccc1)NC(=O)c1cnccn1)B(O)O (configuration not stated) + Cc1cncc(-c2nc(NCCc3c[nH]c4ccccc34)c3ncn(C(C)C)c3n2)c1
IC50 [1]: 0.0493 µM | IC50 [2]: 0.0272 µM | IC50 [3]: 0.021 µM | IC50 [4]: 0.0209 µM | IC50 [5]: 0.0139 µM | viability, T/C (second compound 0.1 µM, first compound 0.000949 µM): 94.6% | viability, T/C (second compound 0.1 µM, first compound 0.003 µM): 96.3% | viability, T/C (second compound 0.1 µM, first compound 0.00949 µM): 106% | viability, T/C (second compound 0.1 µM, first compound 0.03 µM): 75.8% | viability, T/C (second compound 0.1 µM, first compound 0.0949 µM): 16.6% | viability, T/C (second compound 0.1 µM, first compound 0.3 µM): 11.4% | viability, T/C (second compound 0.316 µM, first compound 0.000949 µM): 98.8% | viability, T/C (second compound 0.316 µM, first compound 0.003 µM): 96.9% | viability, T/C (second compound 0.316 µM, first compound 0.00949 µM): 108% | viability, T/C (second compound 0.316 µM, first compound 0.03 µM): 45.2% | viability, T/C (second compound 0.316 µM, first compound 0.0949 µM): 18.4% | viability, T/C (second compound 0.316 µM, first compound 0.3 µM): 10.7% | viability, T/C (second compound 1 µM, first compound 0.000949 µM): 99.8% | viability, T/C (second compound 1 µM, first compound 0.003 µM): 103% | viability, T/C (second compound 1 µM, first compound 0.00949 µM): 93% | viability, T/C (second compound 1 µM, first compound 0.03 µM): 30.3% | viability, T/C (second compound 1 µM, first compound 0.0949 µM): 17.6% | viability, T/C (second compound 1 µM, first compound 0.3 µM): 8.63% | viability, T/C (second compound 3.16 µM, first compound 0.000949 µM): 107% | viability, T/C (second compound 3.16 µM, first compound 0.003 µM): 107% | viability, T/C (second compound 3.16 µM, first compound 0.00949 µM): 102% | viability, T/C (second compound 3.16 µM, first compound 0.03 µM): 25.9% | viability, T/C (second compound 3.16 µM, first compound 0.0949 µM): 13.1% | viability, T/C (second compound 3.16 µM, first compound 0.3 µM): 4.96% | viability, T/C (second compound 10 µM, first compound 0.000949 µM): 124% | viability, T/C (second compound 10 µM, first compound 0.003 µM): 113% | viability, T/C (second compound 10 µM, first compound 0.00949 µM): 73.2% | viability, T/C (second compound 10 µM, first compound 0.03 µM): 2.6% | viability, T/C (second compound 10 µM, first compound 0.0949 µM): 1.14% | viability, T/C (second compound 10 µM, first compound 0.3 µM): 0.75%

COc1cc(C2c3cc4c(cc3C(OC3OC5COC(C)OC5C(O)C3O)C3COC(=O)C23)OCO4)cc(OC)c1O (configuration not stated) + Cc1cncc(-c2nc(NCCc3c[nH]c4ccccc34)c3ncn(C(C)C)c3n2)c1
IC50 [1]: > 10 µM | IC50 [2]: > 10 µM | IC50 [3]: > 10 µM | IC50 [4]: > 10 µM | IC50 [5]: > 10 µM | viability, T/C [6]: 97.7% | viability, T/C [7]: 88.2% | viability, T/C [8]: 88% | viability, T/C [9]: 96.8% | viability, T/C [10]: 82.3% | viability, T/C [11]: 74.6% | viability, T/C [12]: 94.1% | viability, T/C [13]: 82.6% | viability, T/C [14]: 78.2% | viability, T/C [15]: 80% | viability, T/C [16]: 75.2% | viability, T/C [17]: 78.5% | viability, T/C [18]: 90.2% | viability, T/C [19]: 87.6% | viability, T/C [20]: 80.5% | viability, T/C [21]: 78.1% | viability, T/C [22]: 80.4% | viability, T/C [23]: 80.8% | viability, T/C [24]: 95.3% | viability, T/C [25]: 87.9% | viability, T/C [26]: 91.4% | viability, T/C [27]: 92.6% | viability, T/C [28]: 80.1% | viability, T/C [29]: 74.8% | viability, T/C [30]: 131% | viability, T/C [31]: 117% | viability, T/C [32]: 95.6% | viability, T/C [33]: 110% | viability, T/C [34]: 102% | viability, T/C [35]: 100%
